According to ChEMBL document CHEMBL1138204, “Low-calcemic, highly antiproliferative, 1-difluoromethyl hybrid analogs of the natural hormone 1alpha,25-dihydroxyvitamin D3: design, synthesis, and preliminary biological evaluation” (J Med Chem, 2006):
pEC50, pIC50: −log10 of the molar value.

Assays:
[1] = biological target: T1, Vitamin D3 receptor (Homo sapiens) (UniProt P11473); details: CV-1
T1 sequence (whole entry): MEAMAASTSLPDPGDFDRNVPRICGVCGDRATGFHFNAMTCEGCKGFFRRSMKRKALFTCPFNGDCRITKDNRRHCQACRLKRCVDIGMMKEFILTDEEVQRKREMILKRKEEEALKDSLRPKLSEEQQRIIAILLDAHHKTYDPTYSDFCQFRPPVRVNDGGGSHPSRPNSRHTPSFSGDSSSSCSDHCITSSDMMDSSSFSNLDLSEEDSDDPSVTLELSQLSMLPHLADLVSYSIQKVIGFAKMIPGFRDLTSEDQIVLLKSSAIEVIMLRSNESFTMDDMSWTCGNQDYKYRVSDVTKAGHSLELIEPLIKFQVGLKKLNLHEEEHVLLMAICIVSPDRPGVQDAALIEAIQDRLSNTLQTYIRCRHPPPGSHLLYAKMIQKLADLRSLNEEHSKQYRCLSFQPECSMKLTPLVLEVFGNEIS
Description: Activity on human VDR-mediated transcription of osteocalcin VDRE fused to thymidine kinase promoter/growth hormone reporter gene in CV1 cells

[2] = biological target: T1, Vitamin D3 receptor (Homo sapiens)
Description: Stabilization of human [35S]VDR against trypsin digestion by protease assay

[3] = Antiproliferative activity against murine keratinocytes; assay type: functional; details: Mus musculus, Keratinocyte; read-out: ED50 (the source's name)
[4] = species on record: Rattus norvegicus; assay: Calcemic activity in Sprague-Dawley rat measured as urinary calcium excretion relative to calcitriol; assay type: functional, Urine
[5] = biological target: T2, Vitamin D3 receptor (Homo sapiens, UniProt P11473); assay: Displacement of [3H]1,25-dihydroxyvitamin D3 from human VDR by HAP assay
T2 sequence (P11473 whole entry): T1 sequence (whole entry)

Row | ED50 [1] | ED50 [2] | pIC50 [5] | SMILES | pEC50 [3] | Activity [4]
1 | 0.6 nM | 4 nM | 7.30 | C=C1/C(=C\C=C2/CCC[C@]3(C)C([C@H](C)CCC(F)(F)C(O)(CC)CC)=CC[C@@H]23)C[C@@H](O)C[C@@H]1C(F)F | 8.70 | 16%
2 | 390 nM | 500 nM | 7.52 | C=C1/C(=C\C=C2/CCC[C@]3(C)[C@@H]([C@H](C)CCCC(C)(C)O)CC[C@@H]23)C[C@@H](O)C[C@@H]1C(F)F | 6.82 | 
3 | 3 nM | 100 nM | 7.71 | C=C1/C(=C\C=C2/CCC[C@]3(C)[C@@H]([C@@H](C)OCCCC(O)(CC)CC)CC[C@@H]23)C[C@@H](O)C[C@@H]1C(F)F | 8.15 | 5%
